Laboratory results reported in US20240336572A1, “SUBSTITUTED INDAZOLE PROPIONIC ACID DERIVATIVE COMPOUNDS AND USES THEREOF” (Pfizer Inc., priority 2023, published 2024).

Key:
AMPK 221 = target: T1, AMPK 221 (Homo sapiens, UniProt O43741+P54646); experiment: Biochemical profiling of AMPK activators by AMPK221 (HTRF/TR-FRET assay, SAMS peptide, PP2A dephosphorylation protection); conditions: for EC50: phosphorylated AMPK 221 (α2β2δ1), 11 point dilution, duplicate, 4-parameter fit; for Emax: phosphorylated AMPK 221, maximal activation
T1 construct: open reading frames encoding the full-length α2, β2 and δ1 subunits of human AMPK; made in house; host or cells: E. coli BL21-CodonPlus (DE3)-RIPL, pET-14b
Experimental: (§1) The biochemical EC50 (half-maximal concentration required for full activation) of compounds for the activation of AMPK was evaluated by HTRF assay using LANCE Ultra ULight-Acetyl-CoA Carboxylase (SAMS) peptide (commercially available, Perkin Elmer catalog TRF0133-M).
The reaction was terminated after 60 minutes incubation at room temperature by the addition of 5 μL of stop and detection cocktail, which consisted of 1× Perkin Elmer Lance buffer (Perkin Elmer catalog number CR97-100), 40 mM EDTA (Thermo Fisher catalog number BP2482-100), and 2 nM Eu-anti-Acetyl CoA Carboxylase [pSer70] antibody (Perkin Elmer, TRF0208-M). Plates were spun at 1000 RPM, 10 seconds.

AMPK 111 = target: T2, AMPK 111 (Homo sapiens, UniProt Q13131+Q9Y478); experiment: Biochemical profiling of AMPK activators by AMPK111 (HTRF/TR-FRET assay, SAMS peptide, PP2A dephosphorylation protection); conditions: for EC50: phosphorylated AMPK 111 (α1β1δ1 as printed), 11 point dilution, duplicate, 4-parameter fit; for Emax: phosphorylated AMPK 111, maximal activation
T2 construct: open reading frames encoding the full-length α1, β1 and δ1 subunits of human AMPK; made in house; host or cells: E. coli BL21-CodonPlus (DE3)-RIPL, pET-14b
Experimental: as §1
Following a fifteen-minute room temperature incubation, 5 μL of 30 nM protein phosphatase PP2A (isolation detailed above) diluted in the assay buffer was added to the plate, to dephosphorylate pThr172 of AMPK. […] The reaction was terminated after 60 minutes incubation at room temperature, by the addition of 5 μL of stop and detection cocktail, which consisted of 1× Perkin Elmer Lance buffer (Perkin Elmer catalog number CR97-100), 40 mM EDTA (Thermo Fisher catalog number BP2482-100), and 2 nM Eu-anti-Acetyl CoA Carboxylase [pSer70] antibody (Perkin Elmer, TRF0208-M).

T2 sequence (Q13131 whole entry): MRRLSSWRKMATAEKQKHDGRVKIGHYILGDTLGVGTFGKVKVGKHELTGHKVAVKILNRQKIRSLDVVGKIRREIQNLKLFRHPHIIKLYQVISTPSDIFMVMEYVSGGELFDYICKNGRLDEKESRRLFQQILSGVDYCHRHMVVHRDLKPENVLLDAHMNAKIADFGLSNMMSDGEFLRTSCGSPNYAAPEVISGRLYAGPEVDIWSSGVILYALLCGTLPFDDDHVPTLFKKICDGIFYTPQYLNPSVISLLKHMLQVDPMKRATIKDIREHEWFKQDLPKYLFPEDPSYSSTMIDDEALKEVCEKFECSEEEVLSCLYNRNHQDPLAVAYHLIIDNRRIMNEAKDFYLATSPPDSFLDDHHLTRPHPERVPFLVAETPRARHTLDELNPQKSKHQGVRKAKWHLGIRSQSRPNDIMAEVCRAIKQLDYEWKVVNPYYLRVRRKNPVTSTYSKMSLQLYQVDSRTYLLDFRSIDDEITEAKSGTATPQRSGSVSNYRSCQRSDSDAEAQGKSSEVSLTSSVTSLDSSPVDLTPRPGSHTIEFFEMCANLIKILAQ
T2 sequence (Q9Y478 whole entry): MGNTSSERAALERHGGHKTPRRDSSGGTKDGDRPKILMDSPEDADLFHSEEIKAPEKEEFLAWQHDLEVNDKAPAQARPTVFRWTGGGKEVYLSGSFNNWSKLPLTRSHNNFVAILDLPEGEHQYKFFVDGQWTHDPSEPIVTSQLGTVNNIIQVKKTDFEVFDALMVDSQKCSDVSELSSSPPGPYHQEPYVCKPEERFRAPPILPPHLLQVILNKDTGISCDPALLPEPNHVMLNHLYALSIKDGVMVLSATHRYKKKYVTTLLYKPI
T2 sequence (P54619 whole entry partner): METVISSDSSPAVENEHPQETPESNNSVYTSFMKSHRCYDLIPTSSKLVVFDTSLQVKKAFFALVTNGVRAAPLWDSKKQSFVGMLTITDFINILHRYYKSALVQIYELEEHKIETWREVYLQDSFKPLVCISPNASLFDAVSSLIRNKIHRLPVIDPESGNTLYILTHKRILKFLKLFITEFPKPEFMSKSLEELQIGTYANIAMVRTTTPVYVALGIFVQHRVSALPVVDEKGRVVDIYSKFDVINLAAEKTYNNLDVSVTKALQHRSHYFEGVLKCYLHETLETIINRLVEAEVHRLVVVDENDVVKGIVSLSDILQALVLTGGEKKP
T1 sequence (P54646 whole entry): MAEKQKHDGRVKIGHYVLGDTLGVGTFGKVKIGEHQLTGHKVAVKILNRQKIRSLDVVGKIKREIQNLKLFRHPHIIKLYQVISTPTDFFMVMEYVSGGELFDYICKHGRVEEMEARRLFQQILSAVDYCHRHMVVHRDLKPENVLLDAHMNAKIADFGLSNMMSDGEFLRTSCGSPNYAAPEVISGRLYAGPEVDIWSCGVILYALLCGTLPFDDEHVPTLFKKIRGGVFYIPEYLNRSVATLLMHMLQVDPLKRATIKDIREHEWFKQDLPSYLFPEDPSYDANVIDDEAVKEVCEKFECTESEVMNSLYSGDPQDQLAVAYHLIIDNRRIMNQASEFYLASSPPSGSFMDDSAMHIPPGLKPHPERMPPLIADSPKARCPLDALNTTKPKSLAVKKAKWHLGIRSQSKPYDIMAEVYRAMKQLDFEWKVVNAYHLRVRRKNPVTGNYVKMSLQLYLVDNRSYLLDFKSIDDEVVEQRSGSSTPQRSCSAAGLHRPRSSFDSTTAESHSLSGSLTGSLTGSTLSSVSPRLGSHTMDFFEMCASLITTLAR
T1 sequence (O43741 whole entry): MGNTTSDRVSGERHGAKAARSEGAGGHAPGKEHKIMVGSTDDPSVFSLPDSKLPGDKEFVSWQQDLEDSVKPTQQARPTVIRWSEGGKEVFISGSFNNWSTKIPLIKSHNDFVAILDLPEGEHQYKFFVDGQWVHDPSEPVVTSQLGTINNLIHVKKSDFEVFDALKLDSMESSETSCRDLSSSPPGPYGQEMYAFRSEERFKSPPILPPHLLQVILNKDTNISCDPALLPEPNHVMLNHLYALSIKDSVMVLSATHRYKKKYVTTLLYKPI
T1 sequence (P54619 whole entry partner): as the sequence (P54619 whole entry partner) above

Structure (SMILES)	EC50 (AMPK 221) [nM]	Emax (AMPK 221) [%]	EC50 (AMPK 111) [nM]	Emax (AMPK 111) [%]
CNC(=O)c1ccc(-c2ccc(-c3cc4c(CCC(=O)O)n[nH]c4cc3Cl)cc2)c(O)c1 [Example 23, 3-(6-chloro-5-(2′-hydroxy-4′-(methylcarbamoyl)-[1,1′-biphenyl]-4-yl)-1H-indazol-3-yl)propanoic acid]	5	56	2	71
O=C(O)CCc1n[nH]c2cc(Cl)c(-c3ccc(-c4ccccc4OC4OC(C(=O)O)C(O)C(O)C4O)cc3)cc12 (stereo not drawn) [Example 80, 6-((4′-(3-(2-carboxyethyl)-6-chloro-1H-indazol-5-yl)-[1,1′-biphenyl]-2-yl)oxy)-3,4,5-trihydroxytetrahydro-2H-pyran-2-carboxylic acid]	> 21100		> 21100	
O=C(O)CCc1n[nH]c2cc(Cl)c(-c3ccc(-c4c(O)cccc4Cl)cc3)cc12 [Example 46, 3-(6-chloro-5-(2′-chloro-6′-hydroxy-[1,1′-biphenyl]-4-yl)-1H-indazol-3-yl)propanoic acid]	267	59	20	82
COc1ccc(F)c(-c2ccc(-c3cc4c(CCC(=O)O)n[nH]c4cc3Cl)cc2)c1O [Example 26, 3-(6-chloro-5-(6′-fluoro-2′-hydroxy-3′-methoxy-[1,1′-biphenyl]-4-yl)-1H-indazol-3-yl)propanoic acid]	114	66	107	77
CNC(=O)c1ccc(-c2ccc(-c3cc4c(CCC(=O)O)n[nH]c4cc3Cl)cc2)cc1 [Example 76, 3-(6-chloro-5-(4′-(methylcarbamoyl)-[1,1′-biphenyl]-4-yl)-1H-indazol-3-yl)propanoic acid]	13	53	6	67
O=C(O)CCc1n[nH]c2cc(Cl)c(-c3ccc(-c4ccccc4O)cc3F)cc12 [Example 3, 3-(6-Chloro-5-(3-fluoro-2′-hydroxy-[1,1′-biphenyl]-4-yl)-1H-indazol-3-yl)propanoic acid]	528	61	189	83
CS(=O)(=O)Nc1ccc(-c2ccc(-c3cc4c(CCC(=O)O)n[nH]c4cc3Cl)cc2)cc1 [Example 32, 3-(6-chloro-5-(4′-(methylsulfonamido)-[1,1′-biphenyl]-4-yl)-1H-indazol-3-yl)propanoic acid]	198	41	136	71
COc1ccc(C)c(-c2ccc(-c3cc4c(CCC(=O)O)n[nH]c4cc3Cl)cc2)c1O [Example 62, 3-(6-chloro-5-(2′-hydroxy-3′-methoxy-6′-methyl-[1,1′-biphenyl]-4-yl)-1H-indazol-3-yl)propanoic acid]	14	57	25	72
O=C(O)CCc1n[nH]c2cc(Cl)c(-c3ccc(-c4ccncc4O)cc3)cc12 [Example 7, 3-(6-Chloro-5-(4-(3-hydroxypyridin-4-yl)phenyl)-1H-indazol-3-yl)propanoic acid]	359	57	90	71
O=C(O)CCc1n[nH]c2cc(Cl)c(-c3ccc(-c4ccc(OCCN5CCOCC5)cc4)cc3)cc12 [Example 38, 3-(6-chloro-5-(4′-(2-morpholinoethoxy)-[1,1′-biphenyl]-4-yl)-1H-indazol-3-yl)propanoic acid]	209	64	95	67
CC(C)Oc1cccc(-c2ccc(-c3cc4c(CCC(=O)O)n[nH]c4cc3Cl)cc2)c1O [Example 37, 3-(6-chloro-5-(2′-hydroxy-3′-isopropoxy-[1,1′-biphenyl]-4-yl)-1H-indazol-3-yl)propanoic acid]	205	52	464	70
COc1ccc(Cl)c(-c2ccc(-c3cc4c(CCC(=O)O)n[nH]c4cc3Cl)cc2)c1O [Example 14, 3-(6-chloro-5-(6′-chloro-2′-hydroxy-3′-methoxy-[1,1′-biphenyl]-4-yl)-1H-indazol-3-yl)propanoic acid]	72	65	45	74
NC(=O)COc1ccc(-c2ccc(-c3cc4c(CCC(=O)O)n[nH]c4cc3Cl)cc2)cc1 [Example 72, 3-(5-(4′-(2-amino-2-oxoethoxy)-[1,1′-biphenyl]-4-yl)-6-chloro-1H-indazol-3-yl)propanoic acid]	1830	114	99	103
Cc1ccc(-c2ccc(-c3cc4c(CCC(=O)O)n[nH]c4cc3Cl)cc2)c(O)c1 [Example 34, 3-(6-chloro-5-(2′-hydroxy-4′-methyl-[1,1′-biphenyl]-4-yl)-1H-indazol-3-yl)propanoic acid]	197	50	228	68
Cc1cc(C)c(-c2ccc(-c3cc4c(CCC(=O)O)n[nH]c4cc3Cl)cc2)c(O)c1 [Example 18, 3-(6-chloro-5-(2′-hydroxy-4′,6′-dimethyl-[1,1′-biphenyl]-4-yl)-1H-indazol-3-yl)propanoic acid]	96	64	12	84
COc1ccc(C)c(-c2ccc(-c3cc4c(CCCC(=O)O)n[nH]c4cc3Cl)cc2)c1O [Example 78, 4-(6-chloro-5-(2′-hydroxy-3′-methoxy-6′-methyl-[1,1′-biphenyl]-4-yl)-1H-indazol-3-yl)butanoic acid]	87	66	93	78
O=C(O)CCc1n[nH]c2cc(Cl)c(-c3ccc(-c4csc(CO)c4)cc3)cc12 [Example 58, 3-(6-chloro-5-(4-(5-(hydroxymethyl)thiophen-3-yl)phenyl)-1H-indazol-3-yl)propanoic acid]	573	57	215	76
NC(=O)c1ccc(-c2ccc(-c3cc4c(CCC(=O)O)n[nH]c4cc3Cl)cc2)cc1 [Example 5, 3-(5-(4′-Carbamoyl-[1,1′-biphenyl]-4-yl)-6-chloro-1H-indazol-3-yl)propanoic acid]	37	62	89	59
O=C(O)CCc1n[nH]c2cc(Cl)c(-c3ccc(-c4cccc(CO)c4)cc3)cc12 [Example 61, 3-(6-chloro-5-(3′-(hydroxymethyl)-[1,1′-biphenyl]-4-yl)-1H-indazol-3-yl)propanoic acid]	645	34	692	55
O=C(O)CCc1n[nH]c2cc(Cl)c(-c3ccc(-c4cc(F)ccc4O)cc3)cc12 [Example 70, 3-(6-chloro-5-(5′-fluoro-2′-hydroxy-[1,1′-biphenyl]-4-yl)-1H-indazol-3-yl)propanoic acid]	1090	49	285	74
O=C(CCc1n[nH]c2cc(Cl)c(-c3ccc(-c4ccccc4O)cc3)cc12)OC1OC(C(=O)O)C(O)C(O)C1O (stereo not drawn) [Example 79, 6-((3-(6-chloro-5-(2′-hydroxy-[1,1′-biphenyl]-4-yl)-1H-indazol-3-yl)propanoyl)oxy)-3,4,5-trihydroxytetrahydro-2H-pyran-2-carboxylic acid]	29	27	39	67
CSc1ccc(-c2ccc(-c3cc4c(CCC(=O)O)n[nH]c4cc3Cl)cc2)c(O)c1 [Example 63, 3-(6-chloro-5-(2′-hydroxy-4′-(methylthio)-[1,1′-biphenyl]-4-yl)-1H-indazol-3-yl)propanoic acid]	565	64	281	56
CC(=O)N(C)c1ccc(-c2ccc(-c3cc4c(CCC(=O)O)n[nH]c4cc3Cl)cc2)cc1 [Example 39, 3-(6-chloro-5-(4′-(N-methylacetamido)-[1,1′-biphenyl]-4-yl)-1H-indazol-3-yl)propanoic acid]	218	59	109	69
O=C(O)CSc1n[nH]c2cc(Cl)c(-c3ccc(-c4ccccc4O)cc3)cc12 [Example 11, 2-((6-chloro-5-(2′-hydroxy-[1,1′-biphenyl]-4-yl)-1H-indazol-3-yl)thio)acetic acid]	60	44	53	62
COCc1ccc(-c2ccc(-c3cc4c(CCC(=O)O)n[nH]c4cc3Cl)cc2)c(O)c1 [Example 10, 3-(6-chloro-5-(2′-hydroxy-4′-(methoxymethyl)-[1,1′-biphenyl]-4-yl)-1H-indazol-3-yl)propanoic acid]			29	76
